{
  "source": "patent US8192962B2",
  "about": "“Processes for detecting toxic substances” (Daikin Industries, Ltd., priority 2001, dated 2012)",
  "system": "Unknown protein yeast genes",
  "assay": "DNA chip mRNA expression in yeast, unknown protein yeast genes (Table 1)",
  "type": "cell-based, Saccharomyces cerevisiae S288C",
  "summary_of_the_method": "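Values are treated/untreated fluorescence ratios from a whole-genome yeast DNA chip hybridized over 12 hours at 65° C with Cy3- or Cy5-labelled cDNA from poly(A) mRNA. Log-phase S288C yeast in YPD at 25° C had received a single toxic chemical for two hours, dosed to slow growth without killing.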",
  "data": [
    {"smiles": "O=[N+]([O-])c1cc[n+]([O-])c2ccccc12", "note": "[(5), 4-nitroquinolin-N-oxide]", "values": [
      {"measurement": "The level of expressed mRNA in the presence of chemical substance/The level of expressed mRNA in the absence of chemical substance", "setting": "yeast gene YAL053W, incubated two hours with chemical substance", "value": 0.8},
      {"measurement": "The level of expressed mRNA in the presence of chemical substance/The level of expressed mRNA in the absence of chemical substance", "setting": "yeast gene YAR023C", "value": 1.3},
      {"measurement": "The level of expressed mRNA in the presence of chemical substance/The level of expressed mRNA in the absence of chemical substance", "setting": "yeast gene YBL048W", "value": 1.3},
      {"measurement": "The level of expressed mRNA in the presence of chemical substance/The level of expressed mRNA in the absence of chemical substance", "setting": "yeast gene YBL107C", "value": 1.2},
      {"measurement": "The level of expressed mRNA in the presence of chemical substance/The level of expressed mRNA in the absence of chemical substance", "setting": "yeast gene YDL072C, incubated two hours with chemical substance", "value": 1.4},
      {"measurement": "The level of expressed mRNA in the presence of chemical substance/The level of expressed mRNA in the absence of chemical substance", "setting": "yeast gene YDL086W", "value": 1.3},
      {"measurement": "The level of expressed mRNA in the presence of chemical substance/The level of expressed mRNA in the absence of chemical substance", "setting": "yeast gene YDL129W", "value": 1.3},
      {"measurement": "The level of expressed mRNA in the presence of chemical substance/The level of expressed mRNA in the absence of chemical substance", "setting": "yeast gene YDL204W, incubated two hours with chemical substance", "value": 1.0},
      {"measurement": "The level of expressed mRNA in the presence of chemical substance/The level of expressed mRNA in the absence of chemical substance", "setting": "yeast gene YDL222C, incubated two hours with chemical substance", "value": 1.0},
      {"measurement": "The level of expressed mRNA in the presence of chemical substance/The level of expressed mRNA in the absence of chemical substance", "setting": "yeast gene YDR330W, incubated two hours with chemical substance", "value": 1.2},
      {"measurement": "The level of expressed mRNA in the presence of chemical substance/The level of expressed mRNA in the absence of chemical substance", "setting": "yeast gene YDR359C", "value": 1.3},
      {"measurement": "The level of expressed mRNA in the presence of chemical substance/The level of expressed mRNA in the absence of chemical substance", "setting": "yeast gene YDR411C, incubated two hours with chemical substance", "value": 1.6},
      {"measurement": "The level of expressed mRNA in the presence of chemical substance/The level of expressed mRNA in the absence of chemical substance", "setting": "yeast gene YDR511W, incubated two hours with chemical substance", "value": 1.0},
      {"measurement": "The level of expressed mRNA in the presence of chemical substance/The level of expressed mRNA in the absence of chemical substance", "setting": "yeast gene YDR533C", "value": 1.3},
      {"measurement": "The level of expressed mRNA in the presence of chemical substance/The level of expressed mRNA in the absence of chemical substance", "setting": "yeast gene YDR545W, incubated two hours with chemical substance", "value": 1.4},
      {"measurement": "The level of expressed mRNA in the presence of chemical substance/The level of expressed mRNA in the absence of chemical substance", "setting": "yeast gene YEL001C, incubated two hours with chemical substance", "value": 0.9},
      {"measurement": "The level of expressed mRNA in the presence of chemical substance/The level of expressed mRNA in the absence of chemical substance", "setting": "yeast gene YER004W, incubated two hours with chemical substance", "value": 1.5},
      {"measurement": "The level of expressed mRNA in the presence of chemical substance/The level of expressed mRNA in the absence of chemical substance", "setting": "yeast gene YER035W, incubated two hours with chemical substance", "value": 1.5},
      {"measurement": "The level of expressed mRNA in the presence of chemical substance/The level of expressed mRNA in the absence of chemical substance", "setting": "yeast gene YER079W, incubated two hours with chemical substance", "value": 0.8},
      {"measurement": "The level of expressed mRNA in the presence of chemical substance/The level of expressed mRNA in the absence of chemical substance", "setting": "yeast gene YER106W, incubated two hours with chemical substance", "value": 1.6},
      {"measurement": "The level of expressed mRNA in the presence of chemical substance/The level of expressed mRNA in the absence of chemical substance", "setting": "yeast gene YER121W", "value": 1.3},
      {"measurement": "The level of expressed mRNA in the presence of chemical substance/The level of expressed mRNA in the absence of chemical substance", "setting": "yeast gene YER158C, incubated two hours with chemical substance", "value": 0.8},
      {"measurement": "The level of expressed mRNA in the presence of chemical substance/The level of expressed mRNA in the absence of chemical substance", "setting": "yeast gene YER163C, incubated two hours with chemical substance", "value": 0.8},
      {"measurement": "The level of expressed mRNA in the presence of chemical substance/The level of expressed mRNA in the absence of chemical substance", "setting": "yeast gene YER175C, incubated two hours with chemical substance", "value": 0.9},
      {"measurement": "The level of expressed mRNA in the presence of chemical substance/The level of expressed mRNA in the absence of chemical substance", "setting": "yeast gene YER189W", "value": 1.3},
      {"measurement": "The level of expressed mRNA in the presence of chemical substance/The level of expressed mRNA in the absence of chemical substance", "setting": "yeast gene YFL006W, incubated two hours with chemical substance", "value": 1.4},
      {"measurement": "The level of expressed mRNA in the presence of chemical substance/The level of expressed mRNA in the absence of chemical substance", "setting": "yeast gene YFL010C, incubated two hours with chemical substance", "value": 1.3},
      {"measurement": "The level of expressed mRNA in the presence of chemical substance/The level of expressed mRNA in the absence of chemical substance", "setting": "yeast gene YFL024C", "value": 1.1},
      {"measurement": "The level of expressed mRNA in the presence of chemical substance/The level of expressed mRNA in the absence of chemical substance", "setting": "yeast gene YFL032W, incubated two hours with chemical substance", "value": 0.9},
      {"measurement": "The level of expressed mRNA in the presence of chemical substance/The level of expressed mRNA in the absence of chemical substance", "setting": "yeast gene YGL037C, incubated two hours with chemical substance", "value": 0.9},
      {"measurement": "The level of expressed mRNA in the presence of chemical substance/The level of expressed mRNA in the absence of chemical substance", "setting": "yeast gene YGL047W, incubated two hours with chemical substance", "value": 1.3},
      {"measurement": "The level of expressed mRNA in the presence of chemical substance/The level of expressed mRNA in the absence of chemical substance", "setting": "yeast gene YGL053W, incubated two hours with chemical substance", "value": 2.0},
      {"measurement": "The level of expressed mRNA in the presence of chemical substance/The level of expressed mRNA in the absence of chemical substance", "setting": "yeast gene YGL121C", "value": 0.9},
      {"measurement": "The level of expressed mRNA in the presence of chemical substance/The level of expressed mRNA in the absence of chemical substance", "setting": "yeast gene YGL199C, incubated two hours with chemical substance", "value": 0.7},
      {"measurement": "The level of expressed mRNA in the presence of chemical substance/The level of expressed mRNA in the absence of chemical substance", "setting": "yeast gene YGR038W", "value": 1.3},
      {"measurement": "The level of expressed mRNA in the presence of chemical substance/The level of expressed mRNA in the absence of chemical substance", "setting": "yeast gene YGR101W, incubated two hours with chemical substance", "value": 1.2},
      {"measurement": "The level of expressed mRNA in the presence of chemical substance/The level of expressed mRNA in the absence of chemical substance", "setting": "yeast gene YGR110W", "value": 0.9},
      {"measurement": "The level of expressed mRNA in the presence of chemical substance/The level of expressed mRNA in the absence of chemical substance", "setting": "yeast gene YGR130C, incubated two hours with chemical substance", "value": 1.4},
      {"measurement": "The level of expressed mRNA in the presence of chemical substance/The level of expressed mRNA in the absence of chemical substance", "setting": "yeast gene YGR142W", "value": 1.3},
      {"measurement": "The level of expressed mRNA in the presence of chemical substance/The level of expressed mRNA in the absence of chemical substance", "setting": "yeast gene YGR154C, incubated two hours with chemical substance", "value": 1.2},
      {"measurement": "The level of expressed mRNA in the presence of chemical substance/The level of expressed mRNA in the absence of chemical substance", "setting": "yeast gene YGR221C, incubated two hours with chemical substance", "value": 0.9},
      {"measurement": "The level of expressed mRNA in the presence of chemical substance/The level of expressed mRNA in the absence of chemical substance", "setting": "yeast gene YHR138C, incubated two hours with chemical substance", "value": 1.5},
      {"measurement": "The level of expressed mRNA in the presence of chemical substance/The level of expressed mRNA in the absence of chemical substance", "setting": "yeast gene YHR199C, incubated two hours with chemical substance", "value": 1.2},
      {"measurement": "The level of expressed mRNA in the presence of chemical substance/The level of expressed mRNA in the absence of chemical substance", "setting": "yeast gene YIL023C, incubated two hours with chemical substance", "value": 1.3},
      {"measurement": "The level of expressed mRNA in the presence of chemical substance/The level of expressed mRNA in the absence of chemical substance", "setting": "yeast gene YIL041W, incubated two hours with chemical substance", "value": 0.5},
      {"measurement": "The level of expressed mRNA in the presence of chemical substance/The level of expressed mRNA in the absence of chemical substance", "setting": "yeast gene YIL057C", "value": 1.3},
      {"measurement": "The level of expressed mRNA in the presence of chemical substance/The level of expressed mRNA in the absence of chemical substance", "setting": "yeast gene YIL087C, incubated two hours with chemical substance", "value": 1.4},
      {"measurement": "The level of expressed mRNA in the presence of chemical substance/The level of expressed mRNA in the absence of chemical substance", "setting": "yeast gene YIR041W", "value": 1.3},
      {"measurement": "The level of expressed mRNA in the presence of chemical substance/The level of expressed mRNA in the absence of chemical substance", "setting": "yeast gene YJL057C, incubated two hours with chemical substance", "value": 1.5},
      {"measurement": "The level of expressed mRNA in the presence of chemical substance/The level of expressed mRNA in the absence of chemical substance", "setting": "yeast gene YJL066C, incubated two hours with chemical substance", "value": 0.8},
      {"measurement": "The level of expressed mRNA in the presence of chemical substance/The level of expressed mRNA in the absence of chemical substance", "setting": "yeast gene YJL082W, incubated two hours with chemical substance", "value": 1.7},
      {"measurement": "The level of expressed mRNA in the presence of chemical substance/The level of expressed mRNA in the absence of chemical substance", "setting": "yeast gene YJL100W", "value": 1.3},
      {"measurement": "The level of expressed mRNA in the presence of chemical substance/The level of expressed mRNA in the absence of chemical substance", "setting": "yeast gene YJL151C, incubated two hours with chemical substance", "value": 1.3},
      {"measurement": "The level of expressed mRNA in the presence of chemical substance/The level of expressed mRNA in the absence of chemical substance", "setting": "yeast gene YJL152W, incubated two hours with chemical substance", "value": 1.6},
      {"measurement": "The level of expressed mRNA in the presence of chemical substance/The level of expressed mRNA in the absence of chemical substance", "setting": "yeast gene YJL161W, incubated two hours with chemical substance", "value": 1.1},
      {"measurement": "The level of expressed mRNA in the presence of chemical substance/The level of expressed mRNA in the absence of chemical substance", "setting": "yeast gene YJL171C, incubated two hours with chemical substance", "value": 1.0},
      {"measurement": "The level of expressed mRNA in the presence of chemical substance/The level of expressed mRNA in the absence of chemical substance", "setting": "yeast gene YJR008W, incubated two hours with chemical substance", "value": 1.4},
      {"measurement": "The level of expressed mRNA in the presence of chemical substance/The level of expressed mRNA in the absence of chemical substance", "setting": "yeast gene YJR054W, incubated two hours with chemical substance", "value": 1.0}
    ]}
  ]
}
